Experimental data: patent US10633338B2, “Binding Function 3 (BF3) site compounds as therapeutics and methods for their use” (THE UNIVERSITY OF BRITISH COLUMBIA, priority 2014, dated 2020)
Read-outs that look alike come from different tables or passages of the source.

Key:
androgen receptor (AR) = biological target: T1, androgen receptor (AR) (Homo sapiens, UniProt P10275, T878A); assay: eGFP cellular AR transcription assay; format: cell-based
T1 construct: stably transfected eGFP-expressing LNCaP human prostate cancer cells (LN-ARR2PB-eGFP) containing an androgen responsive probasin-derived promoter; endogenous in cells; host or cells: LNCaP (LN-ARR2PB-eGFP)
T1 sequence (P10275 1-920 T878A): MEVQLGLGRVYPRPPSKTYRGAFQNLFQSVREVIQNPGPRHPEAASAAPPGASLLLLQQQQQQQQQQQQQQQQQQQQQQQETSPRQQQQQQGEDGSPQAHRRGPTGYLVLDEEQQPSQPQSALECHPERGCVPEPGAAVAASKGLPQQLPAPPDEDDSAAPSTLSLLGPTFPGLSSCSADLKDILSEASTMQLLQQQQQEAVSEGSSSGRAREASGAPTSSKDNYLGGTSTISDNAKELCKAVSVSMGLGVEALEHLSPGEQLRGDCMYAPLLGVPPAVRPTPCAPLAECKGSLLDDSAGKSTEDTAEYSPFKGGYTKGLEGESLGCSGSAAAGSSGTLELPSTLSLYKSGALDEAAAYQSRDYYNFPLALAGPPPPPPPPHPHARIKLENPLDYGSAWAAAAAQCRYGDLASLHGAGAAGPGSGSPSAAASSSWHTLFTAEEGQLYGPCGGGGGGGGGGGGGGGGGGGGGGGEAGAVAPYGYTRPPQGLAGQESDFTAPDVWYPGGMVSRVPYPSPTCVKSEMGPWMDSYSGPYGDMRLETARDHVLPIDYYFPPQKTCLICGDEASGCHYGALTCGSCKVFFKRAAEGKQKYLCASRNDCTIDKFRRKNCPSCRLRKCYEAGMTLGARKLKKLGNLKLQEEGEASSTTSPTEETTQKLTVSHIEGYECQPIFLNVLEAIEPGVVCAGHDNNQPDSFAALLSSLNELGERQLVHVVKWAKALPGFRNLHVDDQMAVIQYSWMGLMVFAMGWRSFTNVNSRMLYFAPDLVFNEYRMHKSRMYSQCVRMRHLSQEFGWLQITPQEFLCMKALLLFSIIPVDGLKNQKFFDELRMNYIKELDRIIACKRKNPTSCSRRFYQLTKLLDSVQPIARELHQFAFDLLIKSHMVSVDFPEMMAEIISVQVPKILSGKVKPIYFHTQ
Method in brief: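 AR transcriptional activity is read as eGFP expression from a probasin-derived androgen-responsive promoter. Compound titrated 0-100 μM in the presence of 0.1 nM R1881; 35,000 cells/well.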

PSA = assay: Prostate Surface Antigen (PSA) assay, PSA excreted into the media; format: cell-based, human; settings: same plates as eGFP assay
Experimental: The evaluation of PSA excreted into the media was performed in parallel to the eGFP assay using the same plates (see above description). After the cells were incubated for 3 days 150 μl of the media was taken from each well, and added to 150 μl of PBS.

[1] = LN-ARR2PBeGFP LNCaP cells, 0.1 nM R1881, 3 days incubation
[2] = PSA excreted into media, 3 days incubation
[3] = LN-ARR2PB-eGFP LNCaP cells, 0.1 nM R1881, 3 days, 0-100 μM compound, read-out: IC50 (eGFP)
[4] = Homo sapiens, 72 h, media after 3 days, read-out: IC50 (PSA)
[5] = LN-ARR2PBeGFP LNCaP cells, 0.1 nM R1881, 3 days incubation, read-out: eGFP IC50
[6] = Homo sapiens, 72 h, PSA excreted into media, 3 days incubation, read-out: PSA IC50

Row | IC50 (androgen receptor (AR); [5]) | IC50 (PSA; [6]) | Compound | eGFP IC50 (androgen receptor (AR); [1]) | PSA IC50 (PSA; [2]) | also measured
1 | – | – | Fc1cccc2nc(-c3c[nH]c4ccccc34)ccc12 [Compound 13690] | Inactive | Inactive | –
2 | – | – | FC(F)(F)c1ccc(-c2c[nH]c3ccccc23)cc1 [13 743] | – | – | IC50 (androgen receptor (AR); [3]): 380 nM; IC50 (PSA; [4]): 390 nM
3 | – | – | Cc1cccc2c(-c3ccc4c(O)cccc4n3)c[nH]c12 [Compound 13620] | Inactive | Inactive | –
4 | 700 nM | – | Cc1ccc(/N=N/c2c[nH]c3ccccc23)c(C)c1 [Compound 13225] | – | – | IC50 (PSA; PSA excreted into media, 3 days incubation, read-out: PSA IC50): 900 nM
5 | – | – | Fc1cc2[nH]cc(-c3ccc4c(Cl)cccc4n3)c2cc1F [Compound 13707] | Inactive | Inactive | –
6 | – | – | Brc1cccc2c(-c3ccc4ccccc4n3)c[nH]c12 [13 582] | – | – | IC50 (androgen receptor (AR); [3]): 52 nM; IC50 (PSA; [4]): 41 nM
7 | 1300 nM | 1560 nM | Brc1ccc2c(-c3ccc4ccccc4n3)c[nH]c2c1 [Compound 13568] | – | – | –
8 | – | – | Fc1cc(F)c2[nH]cc(-c3ccc4c(F)cccc4n3)c2c1 [Compound 13671] | Inactive | Inactive | –
9 | – | – | Cc1cc2ccccc2nc1-c1c[nH]c2c(C)cccc12 [Compound 13596] | Inactive | Inactive | –
10 | 100 nM | 52 nM | Cc1cccc2c(-c3nc4ccccc4s3)c[nH]c12 [Compound 13760] | – | – | –
11 | 69 nM | 87 nM | Fc1cc(F)c2[nH]cc(-c3ccc4cccc(F)c4n3)c2c1 [Compound 13695] | – | – | –
12 | 1120 nM | 597 nM | Fc1ccc2nc(-c3c[nH]c4cc(F)c(F)cc34)ccc2c1 [Compound 13614] | – | – | –
13 | – | – | COc1ccc(Br)cc1-c1c[nH]c2ccccc12 [13 638] | – | – | IC50 (eGFP) (androgen receptor (AR); LN-ARR2PB-eGFP LNCaP cells, 0.1 nM R1881, 3 days, 0-100 μM compound): IC50 (eGFP) = Inactive; IC50 (PSA) (PSA; media after 3 days): IC50 (PSA) = Inactive
14 | 370 nM | 260 nM | Fc1cc(F)c2[nH]cc(-c3ccc4cccc(F)c4n3)c2c1F [Compound 13752] | – | – | –
15 | 100 nM | 17 nM | Fc1cc2c(-c3ccc4cccnc4c3)c[nH]c2c(F)c1F [Compound 13770] | – | – | –
16 | 480 nM | 160 nM | c1ccc2c(c1)C[C@@H](c1c[nH]c3ccccc13)N2 [Compound 13163-A] | – | – | –
17 | 700 nM | 806 nM | CC1(C)C(c2c[nH]c3ncccc23)=Nc2ccccc21 [Compound 13537] | – | – | –
18 | – | – | c1ccc2c(Cc3nn[nH]n3)c[nH]c2c1 [Compound 13700] | Inactive | Inactive | –
19 | 700 nM | 773 nM | Fc1cc2c(-c3ccc4cccc(F)c4n3)c[nH]c2c(F)c1F [Compound 13774] | – | – | –
20 | 4800 nM | 2700 nM | CC1(C)c2ccccc2NC1C1CN(CCO)c2ccccc21 (centres unmarked) [Compound 13508] | – | – | –
21 | – | – | FC(F)(F)c1ccccc1-c1c[nH]c2ccccc12 [13 745] | – | – | IC50 (androgen receptor (AR); [3]): 1010 nM; IC50 (PSA; [4]): 950 nM
22 | – | – | O=[N+]([O-])c1cccc2nc(-c3c[nH]c4c(Cl)cccc34)ccc12 [Compound 13711] | Inactive | Inactive | –
23 | – | – | Cc1cccc2ccn(-c3ccc4ccc(F)cc4n3)c12 [Compound 13648] | Inactive | Inactive | –
24 | 2500 nM | 1540 nM | CC1(C)c2ccccc2NC1c1c[nH]c2ccc(Br)cc12 (centres unmarked) [Compound 13510] | – | – | –
25 | – | – | Fc1cc(Cl)c2[nH]cc(-c3ccc4c(F)cccc4n3)c2c1 [Compound 13668] | Inactive | Inactive | –
26 | 3540 nM | 1760 nM | Cc1c(F)ccc2c(-c3nc4ccccc4cc3O)c[nH]c12 [Compound 13652] | – | – | –
27 | 3200 nM | 3500 nM | Cc1ccc(CN(C(=O)c2cc3ccccc3[nH]2)C(C)C)o1 [Compound 9128] | – | – | –
28 | 990 nM | 460 nM | Fc1ccc(F)c2c(-c3ccc4ccccc4n3)c[nH]c12 [Compound 13656] | – | – | –
